pIC50: −log10 of the molar value.
Assays:
[1] = molecular target: T1, rhesus monkey MC5R (membranes) (Macaca mulatta, UniProt A0A5F8AEA9); test: MC5R radioligand binding, rhesus monkey MC5R membranes
T1 construct: expressed in transfected cells

[2] = molecular target: T2, rhesus monkey MC5R (whole cells) (Macaca mulatta, UniProt A0A5F8AEA9); test: MC5R radioligand binding, rhesus monkey MC5R whole cells
T2 construct: expressed in transfected cells

human MC5R (hMC5R) = molecular target: T3, human MC5R (hMC5R) (Homo sapiens, UniProt P33032); test: Human MC5R radioligand binding assay (membranes, [125I] NDP-MSH displacement); settings: hMC5R binding; tested as trifluoroacetate or hydrochloride salts, or free bases; read-out: MC5R radioligand IC50
T3 construct: purchased Perkin Elmer RBXMC5M400UA
T3 sequence (P33032 whole entry): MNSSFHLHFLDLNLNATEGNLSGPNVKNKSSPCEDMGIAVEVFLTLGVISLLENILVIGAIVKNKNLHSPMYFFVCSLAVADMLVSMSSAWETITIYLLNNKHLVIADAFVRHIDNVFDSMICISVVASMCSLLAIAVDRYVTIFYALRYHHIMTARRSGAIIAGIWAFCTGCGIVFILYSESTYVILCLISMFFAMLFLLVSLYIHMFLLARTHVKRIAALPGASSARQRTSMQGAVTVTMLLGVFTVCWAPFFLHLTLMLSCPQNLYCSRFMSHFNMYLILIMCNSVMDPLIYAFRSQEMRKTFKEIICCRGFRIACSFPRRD
In short: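 Displacement of [125I]NDP-MSH (radioiodinated in house, HPLC-purified) from hMC5R membranes by test compound measured after 1 hr incubation at 37° C.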

T1 sequence (A0A5F8AEA9 1-325): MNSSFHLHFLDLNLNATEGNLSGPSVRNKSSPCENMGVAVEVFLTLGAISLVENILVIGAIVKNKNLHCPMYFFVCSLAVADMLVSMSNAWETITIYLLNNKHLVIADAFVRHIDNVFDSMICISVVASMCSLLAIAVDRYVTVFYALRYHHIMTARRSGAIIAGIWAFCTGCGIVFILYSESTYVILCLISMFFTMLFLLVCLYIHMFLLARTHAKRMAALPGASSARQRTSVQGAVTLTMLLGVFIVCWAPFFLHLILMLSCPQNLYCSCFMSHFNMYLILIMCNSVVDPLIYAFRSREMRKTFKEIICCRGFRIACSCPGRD
T2 sequence (A0A5F8AEA9 1-325): as above

pIC50 [1]	pIC50 [2]	pIC50 (human MC5R (hMC5R))	SMILES
5.14	< 5.30	–	O=C(NC[C@@H]1CCN(CC(c2ccccc2)c2ccccc2)C(=O)[C@H](CCCN2CCCCC2)N1)c1ccc2ccccc2c1 [Compound 64, N-(((3S,5S)-1-(2,2-diphenylethyl)-2-oxo-3-(3-(piperidin-1-yl)propyl)-1,4-diazepan-5-yl)methyl)-2-naphthamide]
–	–	> 6.00	CC1CC(C)CC(CN2CC[C@@H](CNC(=O)c3ccc(Cl)c(Cl)c3)N[C@@H](CCNC(C)C)C2=O)C1 (stereo partly drawn) [Compound 387, 3,4-dichloro-N-(((3S,5S)-1-((3,5-dimethylcyclohexyl)methyl)-3-(2-(isopropylamino)ethyl)-2-oxo-1,4-diazepan-5-yl)methyl)benzamide]
–	–	> 6.00	CC1CC(C)CC(CN2CC[C@@H](CNC(=O)c3ccc(Cl)c(Cl)c3)N[C@@H](CCN)C2=O)C1 (stereo partly drawn) [Compound 375, N-(((3S,5S)-3-(2-aminoethyl)-1-((3,5-dimethylcyclohexyl)methyl)-2-oxo-1,4-diazepan-5-yl)methyl)-3,4-dichlorobenzamide]
–	–	> 7.00	CC[C@H](CN1CC[C@@H](CNC(=O)c2ccc3cc(Cl)ccc3c2)N[C@@H](CNC(=N)N)C1=O)c1ccccc1 [Compound 500, 6-chloro-N-(((3S,5S)-3-(guanidinomethyl)-2-oxo-1-((S)-2-phenylbutyl)-1,4-diazepan-5-yl)methyl)-2-naphthamide]
–	–	> 6.00	CC[C@H](CN1CC[C@@H](CNC(=O)c2ccc(Cl)c(Cl)c2)N[C@@H](CCN)C1=O)c1ccccc1 [Compound 464, N-(((3S,5S)-3-(2-aminoethyl)-2-oxo-1-((S)-2-phenylbutyl)-1,4-diazepan-5-yl)methyl)-3,4-dichlorobenzamide]
–	–	> 5.00	CNC(=N)NCCC[C@@H]1N[C@H](CNC(=O)[C@H]2Cc3ccccc3CN2)CCN(CC(c2ccccc2)c2ccccc2)C1=O [Compound 130, (R)—N-(((3S,5S)-1-(2,2-diphenylethyl)-3-(3-(3-methylguanidino)propyl)-2-oxo-1,4-diazepan-5-yl)methyl)-1,2,3,4-tetrahydroisoquinoline-3-carboxamide]
–	–	> 6.00	N=C(N)NCCC[C@@H]1N[C@H](CNC(=O)c2ccc3ccccc3c2)CCN(Cc2cc(F)cc(Cl)c2)C1=O [Compound 310, N-(((3S,5S)-1-(3-chloro-5-fluorobenzyl)-3-(3-guanidinopropyl)-2-oxo-1,4-diazepan-5-yl)methyl)-2-naphthamide]
–	–	> 6.00	NCCC[C@@H]1N[C@H](CNC(=O)c2ccc3ccccc3c2)CCN(CC2(c3ccccc3)CCCCC2)C1=O [Compound 325, N-(((3S,5S)-3-(3-aminopropyl)-2-oxo-1-((1-phenylcyclohexyl)methyl)-1,4-diazepan-5-yl)methyl)-2-naphthamide]
–	–	> 5.00	N=C(N)NCCC[C@@H]1N[C@H](CNC(=O)c2ccc3ccccc3c2)CCN(CC(C(=O)N2CCCCC2)c2ccccc2)C1=O (stereo partly drawn) [Compound 343, N-(((3S,5S)-3-(3-guanidinopropyl)-2-oxo-1-(3-oxo-2-phenyl-3-(piperidin-1-yl)propyl)-1,4-diazepan-5-yl)methyl)-2-naphthamide]
–	–	> 6.00	CC(C)(NC(=O)/C=C/c1ccc(Cl)cc1)[C@@H]1CCN(CC(c2ccccc2)c2ccccc2)C(=O)[C@H](CCN2CCCCC2)N1 [Compound 420, (E)-3-(4-chlorophenyl)-N-(2-((3S,5S)-1-(2,2-diphenylethyl)-2-oxo-3-(2-(piperidin-1-yl)ethyl)-1,4-diazepan-5-yl)propan-2-yl)acrylamide]
–	–	> 6.00	CN(C)CC[C@@H]1N[C@H](CNC(=O)c2ccc3ccccc3c2)CCN(CC(c2ccccc2)c2ccccc2)C1=O [Compound 358, N-(((3S,5S)-3-(2-(dimethylamino)ethyl)-1-(2,2-diphenylethyl)-2-oxo-1,4-diazepan-5-yl)methyl)-2-naphthamide]

Second part, the compound before the results:

SMILES	pIC50 [1]	pIC50 [2]	pIC50 (human MC5R (hMC5R))
CC[C@H](CN1CC[C@@H](CNC(=O)c2csc(-c3ccccc3)n2)N[C@@H](CCN2CCCCC2)C1=O)c1ccccc1 [Compound 496, N-(((3S,5S)-2-oxo-1-((S)-2-phenylbutyl)-3-(2-(piperidin-1-yl)ethyl)-1,4-diazepan-5-yl)methyl)-2-phenylthiazole-4-carboxamide]	–	–	> 7.00
CC[C@H](CN1CC[C@@H](CNC(=O)c2ccc3cc(Cl)ccc3c2)N[C@@H](CCNC(=N)NC)C1=O)c1ccccc1 [Compound 458, 6-chloro-N-(((3S,5S)-3-(2-(3-methylguanidino)ethyl)-2-oxo-1-((S)-2-phenylbutyl)-1,4-diazepan-5-yl)methyl)-2-naphthamide]	–	–	> 7.00
O=C(NC[C@@H]1CCN(Cc2cc(Cl)cc(Cl)c2)C(=O)[C@H](CCN2CCCCC2)N1)c1cc(-c2ccc(Cl)cc2)on1 [Compound 527, 5-(4-chlorophenyl)-N-(((3S,5S)-1-(3,5-dichlorobenzyl)-2-oxo-3-(2-(piperidin-1-yl)ethyl)-1,4-diazepan-5-yl)methyl)isoxazole-3-carboxamide]	–	–	> 7.00
CCN(CC)CC[C@@H]1N[C@H](CNC(=O)c2ccc3ccccc3c2)CCN(CC(c2ccccc2)c2ccccc2)C1=O [Compound 362, N-(((3S,5S)-3-(2-(diethylamino)ethyl)-1-(2,2-diphenylethyl)-2-oxo-1,4-diazepan-5-yl)methyl)-2-naphthamide]	–	–	> 7.00
NCCC[C@@H]1N[C@H](CNC(=O)c2ccc3ccccc3c2)CCN(Cc2cc(F)cc(C(F)(F)F)c2)C1=O [Compound 322, N-(((3S,5S)-3-(3-aminopropyl)-1-(3-fluoro-5-(trifluoromethyl)benzyl)-2-oxo-1,4-diazepan-5-yl)methyl)-2-naphthamide]	–	–	> 5.00
NCCC[C@@H]1N[C@H](CNC(=O)c2ccc3ccccc3c2)CCN(Cc2ccc(Cl)cc2Cl)C1=O [Compound 319, N-(((3S,5S)-3-(3-aminopropyl)-1-(2,4-dichlorobenzyl)-2-oxo-1,4-diazepan-5-yl)methyl)-2-naphthamide]	–	–	> 6.00
N=C(N)NCCC[C@@H]1N[C@H](CNC(=O)c2ccc3ccccc3c2)CCN(CC23CC4CC(CC(C4)C2)C3)C1=O [Compound 202, N-(((3S,5S)-1-(1-adamantylmethyl)-3-(3-guanidinopropyl)-2-oxo-1,4-diazepan-5-yl)methyl)-2-naphthamide]	–	–	> 6.00
NCCC[C@@H]1N[C@H](CNC(=O)C=Cc2ccccc2)CCN(CC(c2ccccc2)c2ccccc2)C1=O [Compound 212, N-(((3S,5S)-3-(3-aminopropyl)-1-(2,2-diphenylethyl)-2-oxo-1,4-diazepan-5-yl)methyl)cinnamamide]	–	–	> 6.00

— patent US8008291B2 (Mimetica Pty Ltd, priority 2008, dated 2011)
